Here are results for 30 molecules from PubChem BioAssay AID687032 (Broad Institute, 2013).

The structures appear in SMILES notation. Inconclusive results are not listed.

The test system of the assay is IOSE-T80 viability, CellTiterGlo ATP luminescence, 96 h. As to the kind of experiment: IOSE-T80 viability loss, PAX8-independent line – cell-based, cherry-pick, selectivity assay for PAX8 inhibitor project, dose response (AID 687032).
A word on the AC50: it is the concentration at which the activity in the assay is half-maximal. With `COc1cc(OC)c2c(-c3cccc(-c4ccc(OC)c(F)c4)c3)cc(=O)oc2c1`, the AC50 was 10700 nM. The result for `O=C(O)c1cccc(COc2ccc3c(c2)CCC3)c1` reads less than 260 nM; that for `CN1c2ccc(-c3cccc(F)c3)cc2[C@@H]2[C@@H](CCN2C(=O)Cc2ccccc2)[C@@H]1CO`, less than 260 nM; that for `COc1cc(C2C3=C(COC3=O)Oc3cc4c(cc32)OCO4)cc(OC)c1O` (stereo not given), less than 260 nM. The result for `C[C@@H]1CN([C@H](C)CO)S(=O)(=O)c2ccc(C#CC3CCCC3)cc2O[C@@H]1CN(C)C(=O)Cc1ccncc1` reads less than 260 nM; that for `C[C@H]1CCCCO[C@H](CN(C)Cc2ccc(C(F)(F)F)cc2)[C@@H](C)CN([C@@H](C)CO)C(=O)c2cc(NC(=O)c3ccccc3)ccc2O1`, 32100 nM. Consider `O=C(Nc1ccc(Cl)c(Cl)c1)N[C@@H]1CC[C@H](CCn2cc(C3CCCCC3)nn2)O[C@H]1CO`, for which the AC50 was less than 260 nM.

Consider `O=C(C(=O)N(Cc1ccccc1)Cc1ccccc1)c1c(-c2ccccc2)[nH]c2ccccc12`, for which the AC50 was less than 260 nM. The result for `O=C(C[C@H]1CC[C@H]2[C@@H](COC[C@@H](O)CN2Cc2ccc(Oc3ccccc3)cc2)O1)N1CCCCC1` reads less than 260 nM; that for `COc1ccc(NC(=O)Nc2ccc3c(c2)C(=O)N([C@@H](C)CO)C[C@@H](C)[C@@H](CN(C)CC2CCCCC2)OCCCC[C@@H](C)O3)cc1`, less than 260 nM; that for `Cc1nnc(N/N=C/c2cc(C)n(-c3ccc(F)cc3)c2C)n1N`, 10200 nM. Then `Cc1cnc(NC(=O)CSc2nnc(C)n2N)s1`, with less than 260 nM; and `C[C@H](CO)N1C[C@H](C)[C@@H](CN(C)S(=O)(=O)c2ccc(Cl)cc2)OCCCC[C@H](C)Oc2ccc(NS(=O)(=O)c3ccc(Cl)cc3)cc2C1=O`, with less than 260 nM; and `C[C@@H]1CN([C@@H](C)CO)C(=O)Cc2cc(NS(=O)(=O)c3ccc(Cl)cc3)ccc2O[C@H]1CN(C)Cc1ccc(Oc2ccccc2)cc1`, with less than 260 nM. For the molecule `Nc1nc(=S)c2[nH]cnc2[nH]1`, the AC50 was less than 260 nM. As for `C[C@H]1CCCCO[C@H](CN(C)Cc2ccc(C(F)(F)F)cc2)[C@@H](C)CN([C@@H](C)CO)C(=O)c2cc(NS(=O)(=O)c3ccc(Cl)cc3)ccc2O1`, the AC50 is less than 260 nM. Then `COc1ccc2c(COC(=O)CNC(=O)C34CC5CC(CC(C5)C3)C4)cc(=O)oc2c1`, with less than 260 nM. Consider `C(=Cc1cnc2ccccc2n1)c1ccc2c(c1)OCO2`, for which the AC50 is 7890 nM. The result for `Cc1ccc(Cl)cc1N1CCN(C(=O)c2noc(C)c2[N+](=O)[O-])CC1` reads less than 260 nM; that for `C[C@H](CO)N1C[C@H](C)[C@H](CN(C)S(=O)(=O)c2ccc(Cl)cc2)OCCCC[C@H](C)Oc2ccc(NC(=O)Nc3ccc(C(F)(F)F)cc3)cc2C1=O`, less than 260 nM; that for `C[C@H](CO)N1C[C@H](C)[C@@H](CN(C)CC2CCCCC2)Oc2c(NC(=O)CCCCCC(=O)Nc3ccccc3N)cccc2C1=O`, less than 260 nM.

Consider `C[C@@H]1CCCCO[C@@H](CN(C)C(=O)Nc2cccc3ccccc23)[C@H](C)CN([C@H](C)CO)C(=O)c2cc(NS(=O)(=O)c3ccccc3)ccc2O1`, for which the AC50 is less than 260 nM. The result for `O=C1c2cccc3cc([N+](=O)[O-])cc(c23)C(=O)N1CCN1CCCC1` reads less than 260 nM; that for `O=C(Cc1nnc(NC(=O)c2ccccc2)s1)N/N=C/c1ccco1`, less than 260 nM. The result for `Cc1ccsc1/C=N/Nc1cccc(C(=O)O)c1` reads 17300 nM; that for `O=C(Nc1ccccc1)NN(C(=O)CCl)c1ccccc1`, 8600 nM. The result for `COc1cc(OC)cc(C(=O)NCC(=O)OCC(=O)c2cc(C)n(Cc3ccco3)c2C)c1` reads less than 260 nM; that for `COc1ccc(Cn2cc3c(-c4ccc(F)cc4)nnc-3c3cc(OC)c(OC)cc32)cc1`, 8490 nM; that for `COc1ccc(-c2nc3c(c(SCC(=O)Nc4cccc(O)c4)n2)Cc2c(CO)cnc(C)c2O3)cc1`, 8550 nM.

In the case of `CCCNC(=O)Nc1ccc2c(c1)OC[C@H](C)N(Cc1ccc(-c3ccccn3)cc1)C[C@@H](C)[C@@H](OC)CN(C)C2=O`, the half-maximal activity concentration (AC50) was less than 260 nM.
